This is an account of results in ChEMBL document CHEMBL4138198, “Synthesis of new 1-benzyl tetrahydropyridinylidene ammonium salts and their antimicrobial and anticellular activities” (Eur J Med Chem, 2018).

One data set relates to Plasmodium falciparum. Put plainly: Antimalarial activity against erythrocytic stage of Plasmodium falciparum NF54 assessed as inhibition of [3H]-hypoxanthine incorporation after 48 hrs by liquid scintillation counting analysis. The format is functional, organism-based.
A further data set has as its system L6. Kind of data set: Cytotoxicity against rat L6 cells after 70 hrs by Alamar blue staining-based fluorometric analysis. The format is cell-based. Particulars: L6, 70 h, read-out: IC50.
Data set [1] is described as follows: Selectivity index, ratio of IC50 for rat L6 cells to IC50 for erythrocytic stage of Plasmodium falciparum NF54. The class given is toxicity. Particulars: read-out: Ratio IC50.
Data set [2] concerns Trypanosoma brucei rhodesiense. Put plainly: Antitrypanosomal activity against Trypanosoma brucei rhodesiense STIB900 bloodstream forms after 70 hrs by Alamar blue staining-based fluorometric analysis. The class given is functional, organism-based. The conditions noted are these: STIB900, 70 h.
The nature of data set [3]: Selectivity index, ratio of IC50 for rat L6 cells to IC50 for Trypanosoma brucei rhodesiense STIB900 bloodstream forms. The format is toxicity. The conditions noted are these: read-out: Ratio IC50.
The test system of data set [4] is Plasmodium berghei. Put plainly: Antiplasmodial activity against GFP expressing Plasmodium berghei ANKA infected in NMRI mouse assessed as reduction in parasitemia at 10 mg/kg, ip administered 4 hrs, 24 hrs, 48 hrs, 72 hrs post infection for 4 days and measured 72 hrs post infection by FACS analysis relative to control. More on the design: scale not given: the % may be the effect or the level left. The class given is functional.

Data set [5] relates to Plasmodium berghei. Put plainly: Antiplasmodial activity against GFP expressing Plasmodium berghei ANKA infected in NMRI mouse assessed as mouse mean survival days at 10 mg/kg, ip administered 4 hrs, 24 hrs, 48 hrs, 72 hrs post infection for 4 days and measured 72 hrs post infection by FACS analysis (reference value: 4 days). The class given is functional.
Data set [6] in a line: Growth inhibition of human MRC5 cells at 140 uM after 72 hrs by XTT assay relative to control. Particulars: read-out: GI. The format is cell-based.
Data set [7] relates to Mycolicibacterium smegmatis. Kind of data set: Antimycobacterial activity against Mycobacterium smegmatis ATCC 14468 after 72 hrs by MTT dye-based microbroth dilution assay. The format is functional. The conditions noted are these: ATCC 14468, 72 h.
The next data set relates to Candida tropicalis. Kind of data set: Antimicrobial activity against Candida tropicalis ATCC 13803 assessed as zone of inhibition at 50 ug per disc after 48 hrs by disc diffusion assay. The class given is functional. Particulars: ATCC 13803, 48 h, read-out: DIZ.
For a further data set, the system named is Candida parapsilosis. Put plainly: Antimicrobial activity against Candida parapsilosis ATCC 90018 assessed as zone of inhibition at 50 ug per disc after 48 hrs by disc diffusion assay. The class given is functional. Particulars: Lodderomyces parapsilosis, ATCC 90018, 48 h; read-out: DIZ.
The subject of the next data set is Candida albicans. Kind of data set: Antimicrobial activity against Candida albicans ATCC 10231 assessed as zone of inhibition at 50 ug per disc after 48 hrs by disc diffusion assay. The class given is functional. Particulars: ATCC 10231, 48 h, read-out: DIZ.
Another data set concerns Klebsiella oxytoca. Put plainly: Antimicrobial activity against Klebsiella oxytoca ATCC 8724 assessed as zone of inhibition at 50 ug per disc after 24 hrs by disc diffusion assay. The format is functional. The conditions noted are these: ATCC 8724, 24 h, read-out: DIZ.
For data set [8], the system named is Staphylococcus epidermidis. Put plainly: Antimicrobial activity against Staphylococcus epidermidis ATCC 12228 assessed as zone of inhibition at 50 ug per disc after 24 hrs by disc diffusion assay. The class given is functional. The conditions noted are these: ATCC 12228, 24 h, read-out: DIZ.
The next data set deals with Staphylococcus aureus. Kind of data set: Antimicrobial activity against Staphylococcus aureus subsp. aureus ATCC 25923 assessed as zone of inhibition at 50 ug per disc after 24 hrs by disc diffusion assay. The format is functional. The conditions noted are these: ATCC 25923, 24 h, read-out: DIZ.
A further data set has as its system Pseudomonas aeruginosa. Put plainly: Antimicrobial activity against Pseudomonas aeruginosa ATCC 27853 assessed as zone of inhibition at 50 ug per disc after 24 hrs by disc diffusion assay. The format is functional. Particulars: ATCC 27853, 24 h, read-out: DIZ.
The next data set concerns Bacillus subtilis. Kind of data set: Antimicrobial activity against Bacillus subtilis subsp. subtilis ATCC 6051 assessed as zone of inhibition at 50 ug per disc after 24 hrs by disc diffusion assay. The format is functional. Particulars: subsp. subtilis ATCC 6051, 24 h, read-out: DIZ.
For another data set, the system named is Escherichia coli. Kind of data set: Antimicrobial activity against Escherichia coli ATCC 25922 assessed as zone of inhibition at 50 ug per disc after 24 hrs by disc diffusion assay. Particulars: ATCC 25922, 24 h, read-out: DIZ. The format is functional.
Data set [9] can be described thus: Growth inhibition of human MRC5 cells at 120 uM after 72 hrs by XTT assay relative to control. The format is cell-based. The conditions noted are these: read-out: GI.
The test system of data set [10] is Plasmodium berghei. Kind of data set: Antiplasmodial activity against GFP expressing Plasmodium berghei ANKA infected in NMRI mouse assessed as reduction in parasitemia at 50 mg/kg, ip administered 4 hrs, 24 hrs, 48 hrs, 72 hrs post infection for 4 days and measured 72 hrs post infection by FACS analysis relative to control. The format is functional. Also on record: scale not given: the % may be the effect or the level left.

Data set [11] has as its system Plasmodium berghei. Kind of data set: Antiplasmodial activity against GFP expressing Plasmodium berghei ANKA infected in NMRI mouse assessed as mouse mean survival days at 50 mg/kg, ip administered 4 hrs, 24 hrs, 48 hrs, 72 hrs post infection for 4 days and measured 72 hrs post infection by FACS analysis (reference value: 4 days). The class given is functional.

A value given as a limit tells only on which side of the number the result lay.

Turning to `CC1(C)CC(=[N+]2CCCC2)C=CN1Cc1ccc2ccccc2n1.[Cl-]`, the IC50 in the data set on Plasmodium falciparum stood at 0.09 µM; with L6, 125 µM; in data set [2], 16.6 µM. Besides, the selectivity ratio in [1] was 1390; in data set [3], 7.53. Moreover, the Activity in the data set with Plasmodium berghei [4] was 0%. Moreover, in the data set on Plasmodium berghei [5], the MSD was 3 days. Moreover, the inhibition at 72 h, 140 µM in data set [6] was in the range of 27 to 56%.
For the compound `CC1(C)CC(=[N+]2CCCC2)C=CN1Cc1ccc(C(F)(F)F)cc1.[Br-]`, the IC50 is 0.036 µM in the data set with Plasmodium falciparum, 125 µM in the data set on L6 and 27.2 µM in data set [2]. Besides, the selectivity ratio amounted to 3480 in data set [1] and 4.6 in data set [3]. The Activity with Plasmodium berghei [4] came out at 54.2%. Also, the MSD in the data set on Plasmodium berghei [5] was determined as 7 days. The MIC in data set [7] was 64 µg/mL. Besides, the zone of inhibition at 50 µg/disc in the data set on Candida tropicalis amounted to 15 mm; with Candida parapsilosis it was 0 mm; in the data set on Candida albicans it was 15 mm; in the data set on Klebsiella oxytoca it was 7 mm; in [8] it was 18 mm; with Staphylococcus aureus it was 8 mm. The zone of inhibition at 50 µg/disc was 0 mm in the data set on Pseudomonas aeruginosa, 10 mm in the data set with Bacillus subtilis and 0 mm in the data set on Escherichia coli. Besides, the inhibition at 72 h, 120 µM in data set [9] lay within 27 to 56%.
Take `CC1(C)CC(=[N+]2CCCC2)C=CN1Cc1ccc([N+](=O)[O-])cc1.[Cl-]`: the IC50 in the data set on Plasmodium falciparum was 0.1 µM; with L6, more than 286 µM; in data set [2], 79.8 µM. Further, the selectivity ratio in data set [1] was more than 2860; in [3], more than 3.58. Moreover, in data set [7], the MIC was not below 128 µg/mL. Also, the zone of inhibition at 50 µg/disc with Candida tropicalis is 13 mm; in the data set with Candida parapsilosis, 0 mm; with Candida albicans, 8 mm; with Klebsiella oxytoca, 7 mm; in [8], 7 mm; in the data set on Staphylococcus aureus, 0 mm. Besides, the zone of inhibition at 50 µg/disc in the data set with Pseudomonas aeruginosa, with Bacillus subtilis and in the data set with Escherichia coli was 0 mm in each case. Also, the Activity with Plasmodium berghei [10] was 78.4%. Moreover, the MSD with Plasmodium berghei [11] is 7 days.
